# Target: T1, mTOR kinase (Homo sapiens, UniProt P42345)
# T1 construct: FLAG; made in house
# Test: In vitro mTOR kinase assay, Test (a)(i) (AlphaScreen)
# Assay type: biochemical
# Details: recombinant FLAG-tagged mTOR (1362-2549), ATP 20 μM; read-out: Test (a)(i) IC50
# Description: (a)(i) In Vitro mTOR Kinase Assay
# A C-terminal truncation of mTOR encompassing amino acid residues 1362 to 2549 of mTOR (EMBL Accession No. L34075) was stably expressed as a FLAG-tagged fusion in HEK293 cells as described by Vilella-Bach et al., […], 1999, 274, 4266-4272. The HEK293 FLAG-tagged mTOR (1362-2549) stable cell line was routinely maintained at 37° C. with 5% CO2 up to a confluency of 70-90% in Dulbecco's modified Eagle's growth medium (DMEM; Invitrogen Limited, Paisley, UK Catalogue No. 41966-029) containing 10% heat-inactivated foetal calf serum (FCS; Sigma, Poole, Dorset, UK, Catalogue No. F0392), 1% L-glutamine (Gibco, Catalogue No. 25030-024) and 2 mg/ml Geneticin (G418 sulfate; Invitrogen Limited, UK Catalogue No. 10131-027). Following expression in the mammalian HEK293 cell line, expressed protein was purified using the FLAG epitope tag using standard purification techniques.
# A 30 μl mixture of recombinant purified mTOR enzyme, 1 μM biotinylated peptide substrate (Biotin-Ahx-[…]NH2; Bachem UK Ltd), ATP (20 μM) and a buffer solution [comprising Tris-HCl pH7.4 buffer (50 mM), EGTA (0.1 mM), bovine serum albumin (0.5 mg/mL), DTT (1.25 mM) and manganese chloride (10 mM)] was agitated at room temperature for 90 minutes.
# These assay solutions were incubated for 2 hours at room temperature.
# Phosphorylated biotinylated peptide is formed in situ as a result of mTOR mediated phosphorylation. The phosphorylated biotinylated peptide that is associated with AlphaScreen Streptavidin donor beads forms a complex with the p70 S6 Kinase (T389) 1A5 Monoclonal Antibody that is associated with Alphascreen Protein A acceptor beads. […] Accordingly, the presence of mTOR kinase activity results in an assay signal. In the presence of an mTOR kinase inhibitor, signal strength is reduced.
# T1 sequence (P42345 1362-2549): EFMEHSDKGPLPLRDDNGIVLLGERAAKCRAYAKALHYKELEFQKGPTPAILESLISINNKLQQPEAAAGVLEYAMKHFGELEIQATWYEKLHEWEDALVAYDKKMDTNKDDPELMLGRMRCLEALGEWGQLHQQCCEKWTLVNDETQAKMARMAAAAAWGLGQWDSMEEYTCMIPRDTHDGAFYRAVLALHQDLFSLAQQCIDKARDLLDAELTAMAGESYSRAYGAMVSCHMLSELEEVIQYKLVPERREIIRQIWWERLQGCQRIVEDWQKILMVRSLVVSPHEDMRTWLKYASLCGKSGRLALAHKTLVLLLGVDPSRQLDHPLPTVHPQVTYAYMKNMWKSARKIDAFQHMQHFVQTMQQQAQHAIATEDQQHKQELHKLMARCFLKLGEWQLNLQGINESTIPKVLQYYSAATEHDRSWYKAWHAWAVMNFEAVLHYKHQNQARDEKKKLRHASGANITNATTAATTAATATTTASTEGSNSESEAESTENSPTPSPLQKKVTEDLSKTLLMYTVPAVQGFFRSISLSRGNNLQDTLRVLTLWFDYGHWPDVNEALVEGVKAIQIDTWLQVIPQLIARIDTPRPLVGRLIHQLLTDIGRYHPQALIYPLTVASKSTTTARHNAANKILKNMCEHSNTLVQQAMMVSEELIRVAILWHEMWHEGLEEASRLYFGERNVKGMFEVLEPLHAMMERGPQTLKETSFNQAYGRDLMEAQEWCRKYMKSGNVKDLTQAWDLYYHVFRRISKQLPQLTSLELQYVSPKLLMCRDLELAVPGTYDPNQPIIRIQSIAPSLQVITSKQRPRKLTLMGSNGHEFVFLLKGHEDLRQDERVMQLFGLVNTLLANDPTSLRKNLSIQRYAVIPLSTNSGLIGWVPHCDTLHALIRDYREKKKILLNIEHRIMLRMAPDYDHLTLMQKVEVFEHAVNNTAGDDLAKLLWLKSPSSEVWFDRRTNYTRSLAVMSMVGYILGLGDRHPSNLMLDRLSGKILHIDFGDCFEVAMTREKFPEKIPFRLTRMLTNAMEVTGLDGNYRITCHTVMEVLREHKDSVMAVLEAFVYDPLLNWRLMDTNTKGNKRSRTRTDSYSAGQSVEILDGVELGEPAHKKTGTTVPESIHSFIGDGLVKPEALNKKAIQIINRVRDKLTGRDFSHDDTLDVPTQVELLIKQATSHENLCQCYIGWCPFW
row,SMILES,IC50
1,"CS(=O)(=O)Cc1cc(N2CCOCC2)nc(-c2ccc(NC(=O)c3c[nH]cn3)cc2)n1 [Example 5f, N-[4-[4-(methylsulfonylmethyl)-6-morpholin-4-yl-pyrimidin-2-yl]phenyl]-1H-imidazole-4-carboxamide]",0.966 µM
2,"CC(C)C(=O)Nc1ccc(-c2nc(CS(C)(=O)=O)cc(N3CCOCC3)n2)cc1 [Example 5g, 2-methyl-N-[4-[4-(methylsulfonylmethyl)-6-morpholin-4-yl-pyrimidin-2-yl]phenyl]propanamide]",3.67 µM
3,"CC(C)CC(=O)Nc1ccc(-c2nc(CS(C)(=O)=O)cc(N3CCOCC3)n2)cc1 [Example 5h, 3-methyl-N-[4-[4-(methylsulfonylmethyl)-6-morpholin-4-yl-pyrimidin-2-yl]phenyl]butanamide]",2.58 µM
4,"CS(=O)(=O)Cc1cc(N2CCOCC2)nc(-c2ccc(NC(=O)c3ccco3)cc2)n1 [Example 5i, N-[4-[4-(methylsulfonylmethyl)-6-morpholin-4-yl-pyrimidin-2-yl]phenyl]furan-2-carboxamide]",1.42 µM
5,"COCC(=O)Nc1ccc(-c2nc(CS(C)(=O)=O)cc(N3CCOCC3)n2)cc1 [Example 5j, 2-methoxy-N-[4-[4-(methylsulfonylmethyl)-6-morpholin-4-yl-pyrimidin-2-yl]phenyl]acetamide]",8.27 µM
6,"COCCC(=O)Nc1ccc(-c2nc(CS(C)(=O)=O)cc(N3CCOCC3)n2)cc1 [Example 5k, 3-methoxy-N-[4-[4-(methylsulfonylmethyl)-6-morpholin-4-yl-pyrimidin-2-yl]phenyl]propanamide]",2.08 µM
7,"CCOCCC(=O)Nc1ccc(-c2nc(CS(C)(=O)=O)cc(N3CCOCC3)n2)cc1 [Example 5l, 3-ethoxy-N-[4-[4-(methylsulfonylmethyl)-6-morpholin-4-yl-pyrimidin-2-yl]phenyl]propanamide]",2 µM
8,"CS(=O)(=O)Cc1cc(N2CCOCC2)nc(-c2ccc(NC(=O)CCC(F)(F)F)cc2)n1 [Example 5m, 4,4,4-trifluoro-N-[4-[4-(methylsulfonylmethyl)-6-morpholin-4-yl-pyrimidin-2-yl]phenyl]butanamide]",1.11 µM
9,"CS(=O)(=O)Cc1cc(N2CCOCC2)nc(-c2ccc(NC(=O)C3CC3)cc2)n1 [Example 5n, N-[4-[4-(methylsulfonylmethyl)-6-morpholin-4-yl-pyrimidin-2-yl]phenyl] cyclopropanecarboxamide]",0.614 µM
10,"CS(=O)(=O)Cc1cc(N2CCOCC2)nc(-c2ccc(NC(=O)CC#N)cc2)n1 [Example 5o, 2-cyano-N-[4-[4-(methylsulfonylmethyl)-6-morpholin-4-yl-pyrimidin-2-yl]phenyl]acetamide]",1.85 µM
11,"CS(=O)(=O)Cc1cc(N2CCOCC2)nc(-c2ccc(NC(=O)CCc3ccco3)cc2)n1 [Example 5q, 3-(2-furyl)-N-[4-[4-(methylsulfonylmethyl)-6-morpholin-4-yl-pyrimidin-2-yl]phenyl]propanamide]",4.85 µM
12,"CS(=O)(=O)Cc1cc(N2CCOCC2)nc(-c2ccc(NC(=O)c3cccnc3)cc2)n1 [Example 5r, N-[4-[4-(methylsulfonylmethyl)-6-morpholin-4-yl-pyrimidin-2-yl]phenyl]pyridine-3-carboxamide]",2.76 µM
13,"CS(=O)(=O)Cc1cc(N2CCOCC2)nc(-c2ccc(NC(=O)C(N)=O)cc2)n1 [Example 5s, N-[4-[4-(methylsulfonylmethyl)-6-morpholin-4-yl-pyrimidin-2-yl]phenyl]oxamide]",2.29 µM
14,"CS(=O)(=O)Cc1cc(N2CCOCC2)nc(-c2ccc(NC(=O)C3CCC(=O)N3)cc2)n1 (stereo not shown) [Example 5t, N-[4-[4-(methylsulfonylmethyl)-6-morpholin-4-yl-pyrimidin-2-yl]phenyl]-5-oxo-pyrrolidine-2-carboxamide]",2.86 µM
15,"CS(=O)(=O)Cc1cc(N2CCOCC2)nc(-c2ccc(NC(=O)C3CCOC3)cc2)n1 (stereo not shown) [Example 5u, N-[4-[4-(methylsulfonylmethyl)-6-morpholin-4-yl-pyrimidin-2-yl]phenyl]oxolane-3-carboxamide]",4.84 µM
16,"CS(=O)(=O)Cc1cc(N2CCOCC2)nc(-c2ccc(NC(=O)c3ccno3)cc2)n1 [Example 5v, N-[4-[4-(methylsulfonylmethyl)-6-morpholin-4-yl-pyrimidin-2-yl]phenyl]-1,2-oxazole-5-carboxamide]",0.0369 µM
17,"Cc1ccc(C(=O)Nc2ccc(-c3nc(CS(C)(=O)=O)cc(N4CCOCC4)n3)cc2)cn1 [Example 5w, 6-methyl-N-[4-[4-(methylsulfonylmethyl)-6-morpholin-4-yl-pyrimidin-2-yl]phenyl]pyridine-3-carboxamide]",8.09 µM
18,"CS(=O)(=O)Cc1cc(N2CCOCC2)nc(-c2ccc(NC(=O)c3ccc(C#N)nc3)cc2)n1 [Example 5x, 6-cyano-N-[4-[4-(methylsulfonylmethyl)-6-morpholin-4-yl-pyrimidin-2-yl]phenyl]pyridine-3-carboxamide]",6.2 µM
19,"CS(=O)(=O)Cc1cc(N2CCOCC2)nc(-c2ccc(NC(=O)Cn3ccnc3)cc2)n1 [Example 5y, 2-imidazol-1-yl-N-[4-[4-(methylsulfonylmethyl)-6-morpholin-4-yl-pyrimidin-2-yl]phenyl]acetamide]",2.52 µM
20,"Cc1ccc(C(=O)Nc2ccc(-c3nc(CS(C)(=O)=O)cc(N4CCOCC4)n3)cc2)n1C [Example 5z, 1,5-dimethyl-N-[4-[4-(methylsulfonylmethyl)-6-morpholin-4-yl-pyrimidin-2-yl]phenyl]pyrrole-2-carboxamide]",9.05 µM
21,"C[C@H]1COCCN1c1cc(CS(C)(=O)=O)nc(-c2ccc(N(C)C(=O)c3ccno3)cc2)n1 [Example 7, N-Methyl-N-[4-[4-[(3S)-3-methylmorpholin-4-yl]-6-(methylsulfonylmethyl)pyrimidin-2-yl]phenyl]-1,2-oxazole-5-carboxamide]",0.24 µM
22,"C[C@H]1COCCN1c1cc(CS(C)(=O)=O)nc(-c2cccc(NC(=O)c3ccno3)c2)n1 [Example 7a, N-[3-[4-[(3S)-3-methylmorpholin-4-yl]-6-(methylsulfonylmethyl)pyrimidin-2-yl]phenyl]-1,2-oxazole-5-carboxamide]",1.98 µM

# — patent US20100261723A1, “TRISUBSTITUTED PYRIMIDINE DERIVATIVES FOR THE TREATMENT OF PROLIFERATIVE DISEASES” (ASTRAZENECA AB, priority 2007, published 2010)
